Tested on: S.mutans biofilms
Experiment: Follow-up observation of pH of washes of a laboratory model of S. mutans biofilms in 10% sucrose
Type: cell-based, Streptococcus mutans
Protocol: Example No. 2. Follow-up observation of pH of washes of a laboratory model of S. mutans biofilms.
Inoculum of S.mutans control strain was prepared from an ampoule. The ampoule with the dried strain was opened sterilely over a drier or a tray. The upper end of the ampoule was heated on a burner flame, and paraffin was removed; then a piece of sterile absorbent cotton moistened in sterile water was carefully touched to the pulled end of the ampoule so that a small crack appeared, and the same wet cotton was passed around the tip of the ampoule. After the crack had formed, the end of the ampoule was removed with a light blow of tweezers. After opening the ampoule, 0.3-0.5 ml of heart-brain broth was sterilely poured in. After dissolution of the dry contents, the ampoule was transferred with a Pasteur pipette into tubes with 2 ml of heart-brain broth and grown at 37°C for 2 hours in a thermostat in 5% CO2 medium. To restore full viability, 1-2 passages on nutrient media appropriate for the microbes of the species were required. 2 Petri dishes with agar containing 5% horse blood were seeded with 0.1 ml of a 2-hour culture on heart-brain broth of the strain. Petri dishes were incubated at 37°C for 18 hours in an incubator containing 5% CO2. Gram stained smears were prepared from the grown colonies to assess the tinctorial, phenotypic properties and homogeneity of bacteria. Species membership was confirmed using MALDI-TOF reference bases.
Aqueous solutions of nisin in concentrations of 0.004 and 0.008% were taken as the working solutions for testing. […] Distilled water was used as a negative control. […] Urea was chosen due to its ability to alkalinize the environment in bacterial biofilms (Jadon et al., 2018). During the assay, a 10% sucrose solution was used, which is known to be readily metabolized by cariogenic bacteria to acid, thus contributing to the overall acidification of the medium.
The contents of the wells were extracted using an aspirator. All 6 wells of the first row were filled with 1 ml of deionized water and left for 5 min. The water was extracted with an aspirator; 1 ml of the test solution was added into the wells; in 1 min the component was removed, the wells were glazed for 1 min with deionized water, then it was removed. 250 µl of 10% sucrose was added to the wells and biofilms were scraped off the well walls with a disposable plastic loop. The resulting suspension was transferred by pipette into three Eppendorf tubes: contents of wells 1 and 2 into Eppendorf tube No. 1, contents of wells 3 and 4 into Eppendorf tube No. 2, contents of wells 5 and 6 into Eppendorf tube No. 3; next, the measurement of pH started immediately. Time points of the measurement are: 0, 1, 2, 3, 4, 5, 6, 7, 8, 9, 10, 15, 20, 30 min. After the test was finished, the electrode was washed and the described procedure was repeated for the next solution under study.

NC(N)=O [Urea, reference compound]
pH of mechanically disrupted S.mutans biofilms (Urea 0.5%, 10% sucrose, 0 min): 6.33±0.03
pH of mechanically disrupted S.mutans biofilms (Urea 0.5%, 10% sucrose, 1 min): 6.32±0.006
pH change (in brackets), S.mutans biofilms (Urea 0.5%, 10% sucrose, 1 min vs previous time point): -0.01
pH of mechanically disrupted S.mutans biofilms (Urea 0.5%, 10% sucrose, 2 min): 6.22±0.01
pH change (in brackets), S.mutans biofilms (Urea 0.5%, 10% sucrose, 2 min vs previous time point): -0.1
pH of mechanically disrupted S.mutans biofilms (Urea 0.5%, 10% sucrose, 3 min): 6.15±0.006
pH change (in brackets), S.mutans biofilms (Urea 0.5%, 10% sucrose, 3 min vs previous time point): -0.07
pH of mechanically disrupted S.mutans biofilms (Urea 0.5%, 10% sucrose, 4 min): 6.09±0.006
pH change (in brackets), S.mutans biofilms (Urea 0.5%, 10% sucrose, 4 min vs previous time point): -0.06
pH of mechanically disrupted S.mutans biofilms (Urea 0.5%, 10% sucrose, 5 min): 6.06±0
pH change (in brackets), S.mutans biofilms (Urea 0.5%, 10% sucrose, 5 min vs previous time point): -0.03
pH of mechanically disrupted S.mutans biofilms (Urea 0.5%, 10% sucrose, 6 min): 6.04±0
pH change (in brackets), S.mutans biofilms (Urea 0.5%, 10% sucrose, 6 min vs previous time point): -0.02
pH of mechanically disrupted S.mutans biofilms (Urea 0.5%, 10% sucrose, 7 min): 6.02±0.006
pH change (in brackets), S.mutans biofilms (Urea 0.5%, 10% sucrose, 7 min vs previous time point): -0.02
pH of mechanically disrupted S.mutans biofilms (Urea 0.5%, 10% sucrose, 8 min): 6.0±0.01
pH change (in brackets), S.mutans biofilms (Urea 0.5%, 10% sucrose, 8 min vs previous time point): -0.02
pH of mechanically disrupted S.mutans biofilms (Urea 0.5%, 10% sucrose, 9 min): 5.93±0.02
pH change (in brackets), S.mutans biofilms (Urea 0.5%, 10% sucrose, 9 min vs previous time point): -0.07
pH of mechanically disrupted S.mutans biofilms (Urea 0.5%, 10% sucrose, 10 min): 5.83±0.02
pH change (in brackets), S.mutans biofilms (Urea 0.5%, 10% sucrose, 10 min vs previous time point): -0.1
pH of mechanically disrupted S.mutans biofilms (Urea 0.5%, 10% sucrose, 15 min): 5.74±0.02
pH change (in brackets), S.mutans biofilms (Urea 0.5%, 10% sucrose, 15 min vs previous time point): -0.09
pH of mechanically disrupted S.mutans biofilms (Urea 0.5%, 10% sucrose, 20 min): 5.46±0.02
pH change (in brackets), S.mutans biofilms (Urea 0.5%, 10% sucrose, 20 min vs previous time point): -0.28
pH of mechanically disrupted S.mutans biofilms (Urea 0.5%, 10% sucrose, 30 min): 5.24±0.006
pH change (in brackets), S.mutans biofilms (Urea 0.5%, 10% sucrose, 30 min vs previous time point): -0.22
Value of pH decrease within 30 min. of measurement (%) (Urea 0.5%, 10% sucrose, compared to the initial value): -17.22%
ability to stabilize pH in monospecies cariogenic biofilms (Urea in concentration of 0.5%, compared to the negative control): no ability to stabilize pH
